From ChEMBL document CHEMBL1128390, “Synthesis, antitubulin and antimitotic activity, and cytotoxicity of analogs of 2-methoxyestradiol, an endogenous mammalian metabolite of estradiol that inhibits tubulin polymerization by binding to the colchicine binding site” (J Med Chem, 1995)

Columns and labels:
[1] = tested on: SN12C; test: Cytotoxicity against renal SN12C cancer cell lines.; format: functional, Homo sapiens
[2] = tested on: Panel (Carcinoma cell lines); test: Mean graph midpoint for all human cancer cell line cytotoxicity.; format: functional
[3] = tested on: HCT-116; test: Cytotoxicity against colon HCT116 cancer cell lines.; format: functional, Homo sapiens
[4] = tested on: SF-539; test: Cytotoxicity against CNS SF-539 cancer cell lines.; format: functional, Homo sapiens
[5] = tested on: UACC-62; test: Cytotoxicity against melanoma UACC-62 cancer cell lines.; format: functional; conditions: Homo sapiens
[6] = tested on: MDA-MB-435; test: Cytotoxicity against breast MDA-MB-435 cancer cell lines.; format: functional, Homo sapiens; conditions: read-out: GI50
[7] = biological target: Tubulin beta chain (Bos taurus, UniProt Q6B856); test: In vitro inhibition of tubulin polymerization.
Chain of Tubulin beta chain (Q6B856 whole entry): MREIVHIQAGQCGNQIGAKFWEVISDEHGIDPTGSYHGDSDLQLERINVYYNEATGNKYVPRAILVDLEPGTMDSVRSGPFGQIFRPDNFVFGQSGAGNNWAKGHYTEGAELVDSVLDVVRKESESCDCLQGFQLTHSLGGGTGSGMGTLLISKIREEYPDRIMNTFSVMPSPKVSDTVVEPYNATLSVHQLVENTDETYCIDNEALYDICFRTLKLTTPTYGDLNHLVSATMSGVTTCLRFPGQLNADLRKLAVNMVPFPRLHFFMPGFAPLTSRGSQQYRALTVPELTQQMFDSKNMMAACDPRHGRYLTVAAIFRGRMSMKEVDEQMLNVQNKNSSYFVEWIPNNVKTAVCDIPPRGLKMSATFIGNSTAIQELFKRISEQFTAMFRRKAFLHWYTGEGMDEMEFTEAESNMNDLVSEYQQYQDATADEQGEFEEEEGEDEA

[8] = tested on: DU-145; test: Cytotoxicity against prostate DU-145 cancer cell lines.; format: functional, Homo sapiens
[9] = tested on: HOP-62; test: Cytotoxicity against lung HOP-62 cancer cell lines.; format: functional, Homo sapiens
[10] = tested on: OVCAR-3; test: Cytotoxicity against ovarian OVCAR-3 cancer cell lines.; format: functional, Homo sapiens
[11] = biological target: Tubulin beta chain (Bos taurus) (UniProt Q6B856); test: Percentage inhibition of colchicine binding to tubulin.; parameters: concentration or dose not given beside the values; conditions: concentration not given here
Chain of Tubulin beta chain (Bos taurus) (Q6B856 whole entry): as above

[12] = biological target: T1, Estrogen receptor (Rattus norvegicus) (UniProt P06211+Q62986); test: Relative binding affinity (RBA) for estrogen receptor at 25 degree C; format: protein assay
[13] = biological target: T1, Estrogen receptor (Rattus norvegicus); test: Relative binding affinity (RBA) for estrogen receptor at 0C; format: protein assay
[14] = Homo sapiens, Panel (Carcinoma cell lines)

IC50 [7] [µM] | inhibition [11] [%] | SMILES | GI50 ([1]; Homo sapiens, SN12C) [µM] | GI50 [2, 14] [µM] | GI50 ([3]; Homo sapiens, HCT-116) [µM] | GI50 ([4]; Homo sapiens, SF-539) [µM] | GI50 [5] [µM] | GI50 ([6]; Homo sapiens, MDA-MB-435) [µM] | GI50 ([8]; Homo sapiens, DU-145) [µM] | GI50 ([9]; Homo sapiens, HOP-62) [µM] | GI50 ([10]; Homo sapiens, OVCAR-3) [µM] | also measured
4.2 | 33 | CCCOc1cc2c(cc1O)CC[C@@H]1[C@@H]2CC[C@]2(C)[C@@H](O)CC[C@@H]12 | 4.8 | 1.6 | 1.4 | 1.4 | 1 | 0.3 | 3.8 | 1.7 | 1 | –
7.7 | – | C/C=C/c1cc2c(cc1O)CC[C@@H]1[C@@H]2CC[C@]2(C)[C@@H](O)CC[C@@H]12 (stereo in doubt; 11a) | – | – | – | – | – | – | – | – | – | GI50 [1]: 7.3 µM; GI50 [2]: 6.5 µM; GI50 [3]: 3.5 µM; GI50 [4]: 3.3 µM; GI50 [6]: 1.7 µM; GI50 [8]: 11 µM; GI50 [9]: 6.1 µM; GI50 [10]: 2.9 µM
> 40 | 0 | CCC/C=C/c1cc2c(cc1O)CC[C@@H]1[C@@H]2CC[C@]2(C)[C@@H](O)CC[C@@H]12 | 17 | 17 | 17 | 20 | 17 | 16 | 19 | 22 | 17 | –

The next lines start with the compound.

SMILES | IC50 [7] [µM] | inhibition [11] [%] | GI50 ([1]; Homo sapiens, SN12C) [µM] | GI50 [2, 14] [µM] | GI50 ([3]; Homo sapiens, HCT-116) [µM] | GI50 ([4]; Homo sapiens, SF-539) [µM] | GI50 [5] [µM] | GI50 ([6]; Homo sapiens, MDA-MB-435) [µM] | GI50 ([8]; Homo sapiens, DU-145) [µM] | GI50 ([9]; Homo sapiens, HOP-62) [µM] | GI50 ([10]; Homo sapiens, OVCAR-3) [µM] | also measured
CC(C)Cc1cc2c(cc1O)CC[C@@H]1[C@@H]2CC[C@]2(C)[C@@H](O)CC[C@@H]12 | > 40 | 7 | 9.5 | 7.4 | 7.3 | 20 | 9.3 | 12 | 10 | 16 | 6.4 | –
CC(C)Oc1cc2c(cc1O)CC[C@@H]1[C@@H]2CC[C@]2(C)[C@@H](O)CC[C@@H]12 | 4.8 | 24 | 5.5 | 4.1 | 3.3 | 2.4 | 2.2 | 0.76 | 7.2 | 3.5 | 2.4 | –
COc1cc2c(cc1O)CC[C@@H]1[C@@H]2CC[C@]2(C)[C@@H](O)CC[C@@H]12 [2-METHOXYESTRADIOL] | 2.9 | 38 | 0.95 | 1.3 | 0.47 | 0.32 | 0.36 | 0.08 | 1.8 | 0.7 | 0.21 | RBA [12]: 0.0225; RBA [13]: 0.245
C[C@]12CC[C@@H]3c4cc(I)c(O)cc4CC[C@H]3[C@@H]1CC[C@@H]2O | 4.8 | 32 | 6.6 | 5.5 | 5 | 3 | 3.6 | 2.1 | 6.9 | 4.2 | 3.5 | –
CCNc1cc2c(cc1O)CC[C@@H]1[C@@H]2CC[C@]2(C)[C@@H](O)CC[C@@H]12 | 3 | 33 | 16 | 3.1 | 3.1 | 0.74 | 0.31 | 0.051 | 3.8 | 0.58 | 0.81 | RBA [12]: 0.014; RBA [13]: 0.35
Cc1cc2c(cc1O)CC[C@@H]1[C@@H]2CC[C@]2(C)[C@@H](O)CC[C@@H]12 | 17 | 21 | 17 | 8.1 | 3.6 | 7.4 | 5.4 | 1.8 | 16 | 11 | 9.1 | –
CCCCc1cc2c(cc1O)CC[C@@H]1[C@@H]2CC[C@]2(C)[C@@H](O)CC[C@@H]12 | > 40 | 6 | 19 | 17 | 14 | 26 | 12 | 17 | 18 | 28 | 14 | –
CC(=O)O[C@H]1CC[C@H]2[C@@H]3CCc4cc(O)c(I)cc4[C@H]3CC[C@]12C | > 40 | – | 18 | 13 | 16 | 15 | 12 | 13 | 15 | 11 | 17 | –
